# Reference: ChEMBL document CHEMBL1137871, “Discovery of orally active prostaglandin D2 receptor antagonists” (Bioorg Med Chem Lett, 2004)
# What was measured:
# [1] = biological target: Prostaglandin E2 receptor EP2 subtype (Mus musculus, UniProt Q62053); assay: Ability to inhibit the binding of [3H]-PGD-2 radioligand to membranes of CHO cells stably expressing mouse Prostaglandin E receptor EP2; type: cell membranes
# [2] = biological target: Prostaglandin E2 receptor EP4 subtype (Mus musculus, UniProt P32240); assay: Ability to inhibit the binding of [3H]PGD-2 radioligand to membranes of CHO cells stably expressing mouse Prostaglandin E receptor EP4; type: cell membranes
# Prostaglandin E2 receptor EP4 subtype, sequence (P32240 whole entry): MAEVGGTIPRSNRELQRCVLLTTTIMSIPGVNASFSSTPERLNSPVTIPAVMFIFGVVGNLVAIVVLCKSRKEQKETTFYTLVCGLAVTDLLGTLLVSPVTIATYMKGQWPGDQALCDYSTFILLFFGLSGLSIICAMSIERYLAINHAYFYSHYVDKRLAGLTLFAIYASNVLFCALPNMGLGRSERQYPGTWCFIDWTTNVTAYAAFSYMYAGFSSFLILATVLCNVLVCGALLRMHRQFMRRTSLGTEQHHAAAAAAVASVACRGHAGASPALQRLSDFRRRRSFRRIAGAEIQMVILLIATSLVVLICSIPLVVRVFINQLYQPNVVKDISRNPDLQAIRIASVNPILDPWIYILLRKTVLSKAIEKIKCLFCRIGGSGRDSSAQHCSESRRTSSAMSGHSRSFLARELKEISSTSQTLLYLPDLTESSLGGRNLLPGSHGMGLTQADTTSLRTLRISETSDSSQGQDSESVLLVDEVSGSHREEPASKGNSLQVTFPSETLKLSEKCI
# [3] = biological target: T1, Prostaglandin E2 receptor EP1 subtype (Mus musculus, UniProt P35375); assay: Ability to inhibit the binding of [3H]PGD-2 radioligand to membranes of CHO cells stably expressing mouse Prostaglandin E receptor EP1; type: cell membranes
# T1 sequence (P35375 whole entry): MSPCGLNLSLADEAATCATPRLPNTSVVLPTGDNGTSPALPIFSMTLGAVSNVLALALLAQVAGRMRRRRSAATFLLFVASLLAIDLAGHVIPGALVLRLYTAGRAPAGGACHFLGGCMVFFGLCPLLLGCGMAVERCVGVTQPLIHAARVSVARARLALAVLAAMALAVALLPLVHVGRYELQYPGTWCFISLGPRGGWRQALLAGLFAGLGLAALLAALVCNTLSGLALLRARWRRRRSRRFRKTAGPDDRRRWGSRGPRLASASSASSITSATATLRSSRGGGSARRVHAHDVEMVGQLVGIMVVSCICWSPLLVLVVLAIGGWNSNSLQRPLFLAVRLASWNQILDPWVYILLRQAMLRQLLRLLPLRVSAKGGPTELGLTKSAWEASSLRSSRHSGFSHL
# [4] = biological target: T2, Prostaglandin D2 receptor (Homo sapiens, UniProt Q13258); assay: Ability to inhibit the binding of [3H]PGD-2 radioligand to membranes of CHO cells stably expressing human Prostaglandin D2 receptor; type: cell membranes
# T2 sequence (Q13258 whole entry): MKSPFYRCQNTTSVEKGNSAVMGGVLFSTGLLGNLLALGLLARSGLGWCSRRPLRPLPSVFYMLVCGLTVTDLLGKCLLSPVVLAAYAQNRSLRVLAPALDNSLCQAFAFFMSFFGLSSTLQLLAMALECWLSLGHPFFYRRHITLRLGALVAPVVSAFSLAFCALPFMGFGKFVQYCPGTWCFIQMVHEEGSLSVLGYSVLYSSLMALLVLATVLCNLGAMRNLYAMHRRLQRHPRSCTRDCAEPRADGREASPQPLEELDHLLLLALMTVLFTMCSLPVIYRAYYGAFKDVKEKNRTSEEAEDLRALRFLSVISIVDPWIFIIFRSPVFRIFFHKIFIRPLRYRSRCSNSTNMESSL
# [5] = biological target: T2, Prostaglandin D2 receptor; assay: Effect on the increase in cAMP formation induced by PGD-2 in the presence of bovine serum albumin in CHO cells expressing human Prostaglandin D2 receptor; type: functional, cell-based
# [6] = biological target: T3, Prostaglandin E2 receptor EP3 subtype (Mus musculus, UniProt P30557); assay: Ability to inhibit the binding of [3H]PGD-2 radioligand to membranes of CHO cells stably expressing mouse Prostaglandin E receptor EP3; type: cell membranes
# T3 sequence (P30557 whole entry): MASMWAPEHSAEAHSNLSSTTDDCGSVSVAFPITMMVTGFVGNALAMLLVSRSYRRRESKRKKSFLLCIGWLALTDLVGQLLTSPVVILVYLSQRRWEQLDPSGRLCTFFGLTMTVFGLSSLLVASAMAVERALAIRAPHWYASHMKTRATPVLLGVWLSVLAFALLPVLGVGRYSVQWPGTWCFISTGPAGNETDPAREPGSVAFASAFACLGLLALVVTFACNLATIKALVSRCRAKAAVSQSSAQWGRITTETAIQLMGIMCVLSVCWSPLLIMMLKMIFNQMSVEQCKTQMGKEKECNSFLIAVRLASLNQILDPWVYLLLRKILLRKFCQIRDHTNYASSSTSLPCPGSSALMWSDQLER
# [7] = biological target: T4, Prostaglandin D2 receptor (Mus musculus, UniProt P70263); assay: Ability to inhibit the binding of [3H]PGD-2 radioligand to membranes of CHO cells stably expressing mouse Prostaglandin D2 receptor; type: cell membranes
# T4 sequence (P70263 whole entry): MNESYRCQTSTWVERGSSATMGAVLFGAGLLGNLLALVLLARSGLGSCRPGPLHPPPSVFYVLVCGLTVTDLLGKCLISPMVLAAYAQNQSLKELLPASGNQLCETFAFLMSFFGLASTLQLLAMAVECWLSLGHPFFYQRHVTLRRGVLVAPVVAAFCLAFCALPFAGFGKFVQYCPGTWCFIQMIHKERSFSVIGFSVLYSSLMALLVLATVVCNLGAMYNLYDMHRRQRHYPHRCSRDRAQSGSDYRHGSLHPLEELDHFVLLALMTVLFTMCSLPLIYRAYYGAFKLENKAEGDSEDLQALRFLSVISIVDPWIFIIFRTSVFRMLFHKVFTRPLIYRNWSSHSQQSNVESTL
# [8] = biological target: T4, Prostaglandin D2 receptor; assay: Effect on the increase in cAMP formation induced by PGD-2 in the presence of bovine serum albumin in CHO cells expressing mouse Prostaglandin D2 receptor; type: functional, cell-based
# Cavia porcellus = assay: inhibitory effect of compound on PGD-2 (0.01%, 20 uL/eye) induced vascular permeability in guinea pig conjunctiva at an oral dose of 0.3 mg/kg
# Prostaglandin E2 receptor EP2 subtype, sequence (Q62053 whole entry): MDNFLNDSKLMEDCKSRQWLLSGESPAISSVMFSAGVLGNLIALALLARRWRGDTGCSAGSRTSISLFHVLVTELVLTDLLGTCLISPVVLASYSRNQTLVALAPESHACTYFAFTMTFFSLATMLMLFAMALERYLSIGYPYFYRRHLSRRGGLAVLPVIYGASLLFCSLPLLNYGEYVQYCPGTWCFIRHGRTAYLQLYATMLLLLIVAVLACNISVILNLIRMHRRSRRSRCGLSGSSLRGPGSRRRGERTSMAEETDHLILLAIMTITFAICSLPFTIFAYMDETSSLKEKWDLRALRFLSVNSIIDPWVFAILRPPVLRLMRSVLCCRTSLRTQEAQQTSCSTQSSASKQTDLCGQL
Compound,Ki [1],Ki [2],Ki [3],Ki [4],IC50 [5],Ki [6],Ki [7],IC50 [8],inhibition in vivo at 0.3 mg/kg (Cavia porcellus)
Cc1cc2c(CC(=O)O)cccc2n1C(=O)c1ccc(OC[C@@H]2CN(C)c3ccccc3O2)cc1,0.1 µM,> 10 µM,6.2 µM,0.0035 µM,0.0012 µM,1.7 µM,0.01 µM,,
Cc1cc2c(CC(=O)O)cccc2n1C(=O)c1ccc(OC[C@H]2COc3ccccc3O2)cc1,1.3 µM,1.3 µM,2.3 µM,0.13 µM,0.27 µM,> 10 µM,0.12 µM,,
Cc1cc2c(CC(=O)O)cccc2n1C(=O)c1ccc(OC[C@H]2CN(C)c3ccccc3O2)cc1,0.41 µM,> 10 µM,> 10 µM,0.17 µM,0.01 µM,> 10 µM,0.23 µM,,
Cc1cc2c(CC(=O)O)cccc2n1C(=O)c1ccc(OC[C@@H]2COc3ccccc3O2)cc1,0.06 µM,> 10 µM,2 µM,0.01 µM,0.03 µM,> 10 µM,0.01 µM,,
Cc1cc2c(CC(=O)O)cccc2n1C(=O)c1ccc(OCC2COc3ccccc3C2)cc1 (stereo unspecified),0.28 µM,3.5 µM,> 10 µM,0.39 µM,,> 10 µM,0.18 µM,,
Cc1cc2c(CC(=O)O)cccc2n1C(=O)c1ccc(OCC2Oc3ccccc3O2)cc1,0.25 µM,> 10 µM,0.78 µM,0.03 µM,0.05 µM,0.75 µM,0.0094 µM,,
Cc1cc2c(CC(=O)O)cccc2n1C(=O)c1ccc(OCC2CCc3ccccc3O2)cc1 (stereo unspecified),0.09 µM,3.1 µM,3.8 µM,0.05 µM,0.03 µM,> 10 µM,0.06 µM,,
Cc1cc2c(CC(=O)O)cccc2n1C(=O)c1ccc(OCC2Cc3ccccc3O2)cc1 (stereo unspecified),0.45 µM,> 10 µM,7.8 µM,0.02 µM,0.03 µM,0.98 µM,0.02 µM,,
Cc1cc2c(CC(=O)O)cccc2n1C(=O)c1ccc(OC[C@@H]2CN(C)c3ccc(F)cc3O2)cc1,2.1 µM,> 10 µM,> 10 µM,0.0053 µM,0.00081 µM,1.7 µM,0.023 µM,,60%

# Continued, in another order:
Ki [1],Ki [2],Ki [3],Ki [4],IC50 [5],Ki [6],Ki [7],IC50 [8],Compound,inhibition in vivo at 0.3 mg/kg (Cavia porcellus)
2 µM,> 10 µM,> 10 µM,,,3.3 µM,0.01 µM,0.3 µM,CCCCOc1ccc(C(=O)n2c(C)cc3c(CC(=O)O)cccc32)cc1,
,2.1 µM,7.7 µM,,,3.3 µM,0.17 µM,,Cc1cc2c(CC(=O)O)cccc2n1C(=O)c1ccc(OCCCc2ccccc2)cc1,
1.3 µM,1.9 µM,0.4 µM,,,2.2 µM,,,Cc1cc2c(CC(=O)O)cccc2n1C(=O)c1ccc(OCCc2ccccc2)cc1,
0.54 µM,> 10 µM,5.6 µM,0.29 µM,0.25 µM,> 10 µM,0.01 µM,0.05 µM,Cc1cc2c(CC(=O)O)cccc2n1C(=O)c1ccc(OCCOc2ccccc2)cc1,
0.33 µM,> 10 µM,1.2 µM,,,1.2 µM,0.06 µM,1.3 µM,Cc1cc2c(CC(=O)O)cccc2n1C(=O)c1ccc(OCc2ccccc2)cc1,
